The values that follow come from patent US9487486B2, “Derivatives of nicotinic acid N-oxide, their preparation and their use as inhibitors of enzyme 3-hydroxyanthranilate-3, 4-dioxygenase” (UNIVERSITY OF MARYLAND, BALTIMORE, priority 2011, dated 2016).

The target of data set [1] is T1, 3-hydroxyanthranilate-3,4-dioxygenase (3HAO) (Rattus norvegicus, UniProt P46953).
T1 construct: One hundred μl of control Sprague Dawley rat brain homogenate; from tissue; host or cells: Sprague Dawley rat brain homogenate
T1 sequence (P46953 1-286): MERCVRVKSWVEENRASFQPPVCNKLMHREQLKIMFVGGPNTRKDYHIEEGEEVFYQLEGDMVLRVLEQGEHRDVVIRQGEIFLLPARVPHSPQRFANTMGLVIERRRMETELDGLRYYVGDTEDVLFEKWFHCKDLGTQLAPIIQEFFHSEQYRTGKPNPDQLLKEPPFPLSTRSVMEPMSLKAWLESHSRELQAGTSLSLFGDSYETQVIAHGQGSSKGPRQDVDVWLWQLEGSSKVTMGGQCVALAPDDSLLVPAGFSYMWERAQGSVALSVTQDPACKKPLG
The experiment in a line: In vitro 3HAO inhibition in rat brain homogenates. Type of data set: biochemical. On the procedure: (§1) The following procedure has been carried out for all the six compounds prepared according to the Examples 1-6 above.
(§2) One hundred μl of control Sprague Dawley rat brain homogenate (1/10 dilution in bidistilled water) were further diluted (1/2, 5 v/v) with a 5 mM MES/NaOH buffer (pH 6.5) and incubated at 37° C. for 1 h in the presence of the radiolabeled substrate[14C]-3-hydroxyanthranilic acid (3.7 µM), ferrous ammonium sulphate (150 µM), ascorbic acid (0.01%). 20 μl of a solution (10 μM) of a compound of the invention were added prior to the addition of the radiolabeled substrate, for a total volume of 200 μl. The enzymatic reaction was stopped by adding 50 μl of 6% perchloric acid. The mixture was centrifuged for 5 min a 12.000 g and the supernatant was applied to a column packed with a cation-exchange resin (Dowex 50W, 0.5×2.0 cm; protonated form). [14C]-quinolinic acid formed by enzymatic reaction was eluted with 1 ml of distilled water. The eluate was added to scintillation liquid (Beckman, Ultima Gold) and radioactivity was measured with a is beta-counter.
(§3) The same procedure has been repeated by adding 20 μl of a solution (100 μM) of a compound of the invention and repeated by adding 20 μl of a solution (1000 μM) of a compound of the invention.

Data set [2] deals with T2, 3-hydroxyanthranilate-3,4-dioxygenase (3HAO) (Homo sapiens, UniProt P46952).
T2 construct: One hundred μl of healthy human brain homogenate; from tissue; host or cells: healthy human brain homogenate
T2 sequence (P46952 1-286): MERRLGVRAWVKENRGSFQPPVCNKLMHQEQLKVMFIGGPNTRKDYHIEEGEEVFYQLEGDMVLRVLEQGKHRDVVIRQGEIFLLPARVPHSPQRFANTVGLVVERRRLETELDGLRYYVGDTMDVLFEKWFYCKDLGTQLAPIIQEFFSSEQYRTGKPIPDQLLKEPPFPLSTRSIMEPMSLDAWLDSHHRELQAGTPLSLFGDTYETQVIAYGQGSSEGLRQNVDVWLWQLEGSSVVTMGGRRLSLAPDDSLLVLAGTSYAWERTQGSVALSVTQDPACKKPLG
The data set is described as follows: In vitro 3HAO inhibition in human brain homogenates. Format: biochemical. The method, then:
as §1
as §2, with “of healthy human” for “of control Sprague Dawley rat”, “(3.7 μM),” for “(3.7 µM),”, “(150 μM),” for “(150 µM),”, “substrate, to” for “substrate, for”, “a final” for “a total”, “a” for “a is”
as §3

The subject of data set [3] is de novo production of QUIN in QUIN-lesioned rat brain. The data set is described as follows: In vivo de novo production of QUIN from 3H-kynurenine in QUIN-lesioned rat striatum. The conditions noted are these: 5 mM I3 co-infused intrastriatally with 3H-kynurenine, 7 days after lesion, 2 h, FIG. 1. On the procedure: Quinolinic acid lesions in the rat striatum were made as described by Schwarcz et al. (1983), using 300 nmol quinolinic acid per injection. In vivo assays of I3 in the lesioned striatum were performed 7 days later. [Schwarcz R, Whetsell W O Jr, Mangano R M (1983) Quinolinic acid: an endogenous metabolite that produces axon-sparing lesions in rat brain. Science 219:316-8.]
Intrastriatal injection of 3H-kynurenine: two months-old male Sprague-Dawley rats were anesthetized with chloral hydrate (360 mg/kg, i.p.) and mounted in a David Kopf stereotaxic apparatus (Tujunga, Calif.). Through a small burr hole in the skull, […] of 3H-kynurenine [in phosphate-buffered saline (PBS), pH 7.4] was infused (6 μL over 10 min) intrastriatally. 3H-kynurenine was infused in the absence or presence of 5 mM I3. The injection coordinates were: AP: 1.0 mm anterior to bregma, L: 2.6 mm from the midline, V: 4.8 mm below dura. Animals were euthanized 2 h later and the striatum was dissected out, frozen on dry ice and stored at −80° C. Subsequently, the tissue was processed for the determination of tritiated neuroactive products of KP metabolism. […]
Analysis of 3H-quinolinic acid: the analysis of tritiated quinolinic acid derived from 3H-kynurenine was performed essentially as described by Guidetti et al. (1995). […] Tritiated quinolinic acid was detected radiometrically (Beta-Ram; IN/US Systems, Tampa, Fla.). […]

Data set [4] in a line: Chemical stability over time in phosphate buffer (HPLC). Format: physicochemical. The conditions noted are these: phosphate buffer pH 7.5; 10 and 100 μM; 37° C.; 24 h; FIG. 2. The method, then: Compound I3 was dissolved in a phosphate buffer at pH 7.5 at two different concentrations (10 and 100 μM). The resulting solutions were incubated at 37° C. for 24 h.
Chromatographic analyses were performed with a HPLC system (Shimadzu Corp., Kyoto, Japan), endowed with a UV/VIS detector, and the samples were eluted with a mixture containing methanol (0.05% TFA)/water (0.25% TFA)=20/80 at a flow rate of 1 ml/min.

The mark [5] stands for this setting: 10 μM compound, rat brain homogenate.
The mark [6] stands for this setting: 100 μM compound, rat brain homogenate.
Where [7] appears, read: 1000 μM compound, rat brain homogenate (I1-I3 table).
Setting [8] is: 10 μM compound, human brain homogenate.
Where [9] appears, read: 100 μM compound, human brain homogenate.
Setting [10] is: 1000 μM compound, human brain homogenate (I1-I3 table).
The mark [11] stands for this setting: 1000 μM compound, rat brain homogenate (I4-I6 table).
The mark [12] stands for this setting: 1000 μM compound, human brain homogenate (I4-I6 table).

The structures appear in SMILES notation.

For the compound `Nc1c(C(=O)O)ccc[n+]1[O-]` [Compound I1, 2-aminonicotinic acid N-oxide], the “% inibition of 3HAO (r)” value in data set [1] (setting [5]) is listed as 49%; in data set [1] (setting [6]), 90%; in data set [1] (setting [7]), 97%. The results for the “% inibition of 3HAO (h)” value in data set [2] (setting [8]), in data set [2] (setting [9]) and in data set [2] (setting [10]) were 66%, 93% and 96%, respectively.

Take `Nc1c(C(=O)O)ccc(Cl)[n+]1[O-]` [Compound I2, 2-amino-6-chloronicotinic acid N-oxide]: the “% inibition of 3HAO (r)” value in data set [1] (setting [5]) turned out to be 22%; in data set [1] (setting [6]), 76%; in data set [1] (setting [7]), 99%. Further, the “% inibition of 3HAO (h)” value in data set [2] (setting [8]) was 42%; in data set [2] (setting [9]) it was 100%; in data set [2] (setting [10]), 100%.

For the compound `Cc1ccc(C(=O)O)c(N)[n+]1[O-]` [Compound I3, 2-amino-6-methylnicotinic acid N-oxide], the “% inibition of 3HAO (r)” value is 78% in data set [1] (setting [5]), 97% in data set [1] (setting [6]) and 99% in data set [1] (setting [7]). For the same compound, the entries for the “% inibition of 3HAO (h)” value in data set [2] (setting [8]), in data set [2] (setting [9]) and in data set [2] (setting [10]) were 80%, 100% and 100%, respectively. Also, in data set [3], the “Effect on brain level of QUIN (de novo 3H-quinolinic acid production)” value is listed as “able to block the abnormal de novo production of QUIN under excitotoxic conditions”. Moreover, the “Chemical stability (HPLC)” value in data set [4] is reported as “complete chemical stability”.

With `Cc1ccc(C(N)=O)c(N)[n+]1[O-]` [Compound I4, 2-amino-6-methylnicotinamide N-oxide], in data set [1] (setting [11]), the “% inibition of 3HAO (r)” value is recorded as 15%. Also, in data set [2] (setting [12]), the “% inibition of 3HAO (h)” value is 23%.

With `Cc1cc(-c2ccccc2)c(C(=O)O)c(N)[n+]1[O-]` [Compound I5, 2-amino-4-phenyl-6-methylnicotinic acid N-oxide], the “% inibition of 3HAO (r)” value in data set [1] (setting [11]) amounted to 80%. In addition, in data set [2] (setting [12]), the “% inibition of 3HAO (h)” value is on record as 70%.

For `CC(C)c1cc(C(C)C)[n+]([O-])c(N)c1C(=O)O` [Compound I6, 2-amino-4,6-diisopropylnicotinic acid N-oxide], the “% inibition of 3HAO (r)” value in data set [1] (setting [11]) is given as 70%. The “% inibition of 3HAO (h)” value in data set [2] (setting [12]) is on record as 60%.
